Reference: US11208412B2 (DAEGU-GYEONGBUK MEDICAL INNOVATION FOUNDATION, priority 2017, dated 2021)

Biological target: T1, recombinant LRRK2 kinase (Homo sapiens, UniProt Q5S007)
T1 construct: purchased Signal Chem, Richmond, BC, Canada
Assay: LRRK2 kinase inhibition (Kinase-Glo luminescence)
Type: biochemical
Conditions: IC50 grade; 25 μmol/L ATP, LRRKtide, 30° C. 2 hours; read-out: Enzyme activity LRRK2
Protocol: Upon completion of the reaction, an equal amount of Kinase-Glo (Promega, Madison, Wis.) solution was added thereto, followed by reaction for 40 minutes. A detection solution was added thereto, followed by further reaction at room temperature for 30 minutes. Then, IC50 of kinase was calculated by measuring the amount of luciferase using a microplate ELISA reader (Bio-Tek).

T1 sequence (Q5S007 whole entry): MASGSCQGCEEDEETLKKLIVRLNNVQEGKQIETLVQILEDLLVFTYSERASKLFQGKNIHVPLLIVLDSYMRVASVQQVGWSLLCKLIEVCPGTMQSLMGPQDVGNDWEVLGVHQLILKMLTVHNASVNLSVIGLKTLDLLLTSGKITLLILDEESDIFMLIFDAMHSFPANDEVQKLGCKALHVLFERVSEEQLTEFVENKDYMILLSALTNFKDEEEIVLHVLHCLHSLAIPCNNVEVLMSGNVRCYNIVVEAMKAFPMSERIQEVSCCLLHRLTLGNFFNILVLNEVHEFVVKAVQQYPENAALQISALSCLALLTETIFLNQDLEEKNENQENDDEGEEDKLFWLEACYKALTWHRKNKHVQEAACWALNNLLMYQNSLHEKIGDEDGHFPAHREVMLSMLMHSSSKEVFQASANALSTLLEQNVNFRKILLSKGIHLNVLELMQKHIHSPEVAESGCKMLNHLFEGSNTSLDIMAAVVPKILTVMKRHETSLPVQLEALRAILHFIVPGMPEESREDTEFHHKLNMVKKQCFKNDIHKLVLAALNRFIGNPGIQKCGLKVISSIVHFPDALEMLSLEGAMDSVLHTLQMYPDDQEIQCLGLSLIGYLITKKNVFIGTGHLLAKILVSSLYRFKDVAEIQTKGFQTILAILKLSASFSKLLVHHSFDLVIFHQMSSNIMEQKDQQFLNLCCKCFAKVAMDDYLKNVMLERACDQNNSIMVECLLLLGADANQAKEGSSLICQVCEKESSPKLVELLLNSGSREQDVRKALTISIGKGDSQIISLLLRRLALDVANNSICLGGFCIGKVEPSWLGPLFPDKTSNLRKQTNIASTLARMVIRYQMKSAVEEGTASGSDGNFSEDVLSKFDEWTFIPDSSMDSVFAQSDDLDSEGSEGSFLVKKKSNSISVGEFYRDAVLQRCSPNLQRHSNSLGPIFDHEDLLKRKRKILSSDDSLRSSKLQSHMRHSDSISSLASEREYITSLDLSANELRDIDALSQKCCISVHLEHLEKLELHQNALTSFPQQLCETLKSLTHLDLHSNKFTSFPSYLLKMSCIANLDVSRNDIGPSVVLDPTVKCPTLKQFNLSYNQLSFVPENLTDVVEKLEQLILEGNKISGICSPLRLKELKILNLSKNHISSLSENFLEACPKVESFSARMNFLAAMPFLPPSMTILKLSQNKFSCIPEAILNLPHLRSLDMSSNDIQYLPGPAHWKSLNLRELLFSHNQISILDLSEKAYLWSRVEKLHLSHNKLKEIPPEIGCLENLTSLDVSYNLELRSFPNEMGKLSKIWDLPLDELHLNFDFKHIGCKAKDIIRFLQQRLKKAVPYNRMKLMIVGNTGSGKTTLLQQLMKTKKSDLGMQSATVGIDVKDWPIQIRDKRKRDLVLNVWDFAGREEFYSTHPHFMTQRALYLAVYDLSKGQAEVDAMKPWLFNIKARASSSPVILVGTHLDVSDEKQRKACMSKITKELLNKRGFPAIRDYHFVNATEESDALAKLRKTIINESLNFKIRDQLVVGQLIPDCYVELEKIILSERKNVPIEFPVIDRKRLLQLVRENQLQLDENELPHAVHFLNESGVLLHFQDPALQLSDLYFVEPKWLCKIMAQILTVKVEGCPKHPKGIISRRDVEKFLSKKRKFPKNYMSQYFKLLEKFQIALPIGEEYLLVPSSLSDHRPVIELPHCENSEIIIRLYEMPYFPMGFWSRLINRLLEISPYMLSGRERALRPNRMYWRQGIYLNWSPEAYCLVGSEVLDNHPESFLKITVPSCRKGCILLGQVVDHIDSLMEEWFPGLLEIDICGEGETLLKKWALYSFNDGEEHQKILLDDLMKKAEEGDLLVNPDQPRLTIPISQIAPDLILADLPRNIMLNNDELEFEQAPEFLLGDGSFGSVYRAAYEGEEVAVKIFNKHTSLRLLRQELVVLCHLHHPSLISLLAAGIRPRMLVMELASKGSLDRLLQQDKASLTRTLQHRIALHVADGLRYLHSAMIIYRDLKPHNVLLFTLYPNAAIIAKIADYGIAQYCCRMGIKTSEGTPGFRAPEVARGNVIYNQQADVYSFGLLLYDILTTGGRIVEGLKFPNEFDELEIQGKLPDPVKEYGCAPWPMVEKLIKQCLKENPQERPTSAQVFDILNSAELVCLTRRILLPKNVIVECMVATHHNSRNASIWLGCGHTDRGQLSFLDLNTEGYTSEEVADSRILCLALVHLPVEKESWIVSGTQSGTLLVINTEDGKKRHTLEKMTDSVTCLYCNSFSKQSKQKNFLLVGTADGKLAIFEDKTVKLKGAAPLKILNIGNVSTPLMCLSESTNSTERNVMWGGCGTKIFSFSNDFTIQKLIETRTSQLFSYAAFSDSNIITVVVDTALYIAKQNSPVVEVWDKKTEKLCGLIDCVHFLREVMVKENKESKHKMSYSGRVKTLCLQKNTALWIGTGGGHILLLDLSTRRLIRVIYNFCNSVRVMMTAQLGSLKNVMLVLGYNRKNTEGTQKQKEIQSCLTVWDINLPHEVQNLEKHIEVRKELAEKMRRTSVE

Row | SMILES | IC50 [nM]
1 | CCNc1nc(Nc2ccc(C(=O)NC3CCN(C4COC4)CC3)cc2OC)nc2[nH]cc(C#N)c12 [Example 60, 4-((5-cyano-4-(ethylamino)-7H-pyrrolo[2,3-d]pyrimidine-2-yl)amino)-3-methoxy-N-(1-(oxetane-3-yl)piperidine-4-yl)benzylamide] | 10 to 100
2 | CCCNc1nc(Nc2ccc(C(=O)N3CCOCC3)cc2OC)nc2[nH]cc(C#N)c12 [Example 12, 2-((2-methoxy-4-(morpholine-4-carbonyl)phenyl)amino)-4-(propylamino)-7H-pyrrolo[2,3-d]pyrimidine-5-carbonitrile] | < 10
3 | CCNc1nc(Nc2c(C)nn(C(C)(C)C#N)c2C)nc2[nH]cc(C#N)c12 [Example 78, 2-((1-(2-cyanopropane-2-yl)-3,5-dimethyl-1H-pyrazole-4-yl)amino)-4-(ethylamino)-7H-pyrrolo[2,3-d]pyrimidine-5-carbonitrile] | > 100
4 | CCNc1nc(Nc2cc3c(cc2OC)N(C)C(=O)C(C)(C)O3)nc2[nH]cc(C#N)c12 [Example 131, 4-(ethylamino)-2-((6-methoxy-2,2,4-trimethyl-3-oxo-3,4-dihydro-2H-benzo[b][1,4]oxazine-7-yl)amino)-7H-pyrrolo[2,3-d]pyrimidine-5-carbonitrile] | 10 to 100
5 | Cc1nn(C(C)(C)C#N)cc1Nc1nc(OC2(C)CC2)c2c(C#N)c[nH]c2n1 [Example 94, 2-((1-(2-cyanopropane-2-yl)-3-methyl-1H-pyrazole-4-yl)amino)-4-(1-methylcyclopropoxy)-7H-pyrrolo[2,3-d]pyrimidine-5-carbonitrile] | < 10
6 | Cc1nn(C)cc1Nc1nc(NC2(C)CC2)c2c(C#N)c[nH]c2n1 [Example 40, 2-((1,3-dimethyl-1H-pyrazole-4-yl)amino)-4-((1-methylcyclopropyl)amino)-7H-pyrrolo[2,3-d]pyrimidine-5-carbonitrile] | < 10
7 | CCCNc1nc(Nc2cc(F)c(C(=O)N3CCC(N4CCOCC4)CC3)cc2OC)nc2[nH]cc(C#N)c12 [Example 15, 2-((5-fluoro-2-methoxy-4-(4-morpholinopiperidine-1-carbonyl)phenyl)amino)-4-(propylamino)-7H-pyrrolo[2,3-d]pyrimidine-5-carbonitrile] | < 10
8 | CCNc1nc(Nc2cn(C(C)(C)C#N)nc2C)nc2[nH]cc(C(F)(F)F)c12 [Example 103, 2-(4-((4-(ethylamino)-5-(trifluoromethyl)-7H-pyrrolo[2,3-d]pyrimidine-2-yl)amino)-3-methyl-1H-pyrazole-1-yl)-2-methylpropanenitrile] | < 10
9 | CNc1nc(Nc2cn(C)nc2C)nc2[nH]cc(C#N)c12 [Example 28, 6-((1,3-dimethyl-1H-pyrazole-4-yl)amino)-4-(methylamino)-1H-pyrrolo[2,3-b]pyrimidine-3-carbonitrile] | 10 to 100
10 | CCNc1nc(Nc2cc3c(cc2OC)N(C)C(=O)C(C)(C)O3)nc2[nH]cc(C(F)(F)F)c12 [Example 137, 7-((4-(ethylamino)-5-(trifluoromethyl)-7H-pyrrolo[2,3-d]pyrimidine-2-yl)amino)-6-methoxy-2,2,4-trimethyl-2H-benzo[1,4]oxazine-3(4H)-one] | > 100
11 | COc1cc(C(=O)N2CCOCC2)ccc1Nc1nc(O[C@@H]2CCOC2)c2c(C#N)c[nH]c2n1 [Example 89, (R)-2-((2-methoxy-4-(morpholine-4-carbonyl)phenyl)amino)-4-((tetrahydrofuran-3-yl)oxy)-7H-pyrrolo[2,3-d]pyrimidine-5-carbonitrile] | < 10
12 | COc1cc(C(=O)N2C[C@@H](C)O[C@@H](C)C2)ccc1Nc1nc(OC2(C)CC2)c2c(C#N)c[nH]c2n1 [Example 100, 2-((4-((2R,6S)-2,6-dimethylmorpholine-4-carbonyl)-2-methoxyphenyl)amino)-4-(1-methylcyclopropoxy)-7H-pyrrolo[2,3-d]pyrimidine-5-carbonitrile] | 10 to 100
13 | COc1cc(C(=O)N2CCOCC2)c(F)cc1Nc1nc(NC2CC2)c2c(C#N)c[nH]c2n1 [Example 18, 4-(cyclopropylamino)-2-((5-fluoro-2-methoxy-4-(morpholine-4-carbonyl)phenyl)amino)-7H-pyrrolo[2,3-d]pyrimidine-5-carbonitrile] | 10 to 100
14 | CNc1nc(Nc2cc(F)c(C(=O)NC3CCN(C(C)C)CC3)cc2OC)nc2[nH]cc(C#N)c12 [Example 67, 4-((5-cyano-4-(methylamino)-7H-pyrrolo[2,3-d]pyrimidine-2-yl)amino)-2-fluoro-N-(1-isopropylpiperidine-4-yl)-5-methoxybenzamide] | < 10
15 | CCNc1nc(Nc2cc(F)c(C(=O)NC3CCN(C)CC3)cc2OC)nc2[nH]cc(C#N)c12 [Example 66, 4-((5-cyano-4-(ethylamino)-7H-pyrrolo[2,3-d]pyrimidine-2-yl)amino)-2-fluoro-5-methoxy-N-(1-methylpiperidine-4-yl)benzamide] | 10 to 100
16 | CCNc1nc(Nc2cnn(CCO)c2)nc2[nH]cc(C#N)c12 [Example 70, 4-(ethylamino)-2-((1-(2-hydroxyethyl)-1H-pyrazole-4-yl)amino)-7H-pyrrolo[2,3-d]pyrimidine-5-carbonitrile] | < 10

Row | SMILES | IC50 [nM]
17 | CC1(Nc2nc(Nc3cnn([C@H]4CCN(C5COC5)C[C@@H]4F)c3)nc3[nH]cc(C#N)c23)CC1 [Example 54, 2-((1-((3S,4S)-3-fluoro-1-(oxetane-3-yl)piperidine-4-yl)-1H-pyrazole-4-yl)amino)-4-((methylcyclopropyl)amino)-7H-pyrrolo[2,3-d]pyrimidine-5-carbonitrile] | < 10
18 | CCNc1nc(Nc2ccc(C(=O)NC3CCN(C)CC3)cc2OC)nc2[nH]cc(C#N)c12 [Example 56, 4-((5-cyano-4-(ethylamino)-7H-pyrrolo[2,3-d]pyrimidine-2-yl)amino)-3-methoxy-N-(1-methylpiperidine-4-yl)benzamide] | < 10
19 | CNc1nc(Nc2ccc(C(=O)N3CCC(N4CCOCC4)CC3)cc2OC)nc2[nH]cc(C#N)c12 [Example 9, 2-((2-methoxy-4-(4-morpholinylpiperidine-1-carbonyl)phenyl)amino)-4-(methylamino)-7H-pyrrolo[2,3-d]pyrimidine-5-carbonitrile] | < 10
20 | CNc1nc(Nc2ccc(C(=O)NC3CCN(C4COC4)CC3)cc2OC)nc2[nH]cc(C#N)c12 [Example 61, 4-((5-cyano-4-(methylamino)-7H-pyrrolo[2,3-d]pyrimidine-2-yl)amino)-3-methoxy-N-(1-(oxetane-3-yl)piperidine-4-yl)benzylamide] | 10 to 100
21 | CNc1nc(Nc2cc(F)c(C(=O)N3CCC(N4CCOCC4)CC3)cc2OC)nc2[nH]cc(C#N)c12 [Example 11, 2-((5-fluoro-2-methoxy-4-(4-morpholinopiperidine-1-carbonyl)phenyl)amino)-4-(methylamino)-7H-pyrrolo[2,3-d]pyrimidine-5-carbonitrile] | < 10
22 | COc1cc(C(=O)N2CCO[C@H](C)C2)ccc1Nc1nc(NC2(C)CC2)c2c(C#N)c[nH]c2n1 [Example 42, (R)-2-((2-methoxy-4-(2-methylmorpholine-4-carbonyl)phenyl)amino)-4-((1-methylcyclopropyl)amino)-7H-pyrrolo[2,3-d]pyrimidine-5-carbonitrile] | < 10
23 | CCNc1nc(Nc2cn(C(C)(C)C#N)nc2Cl)nc2[nH]cc(C#N)c12 [Example 72, 2-((3-chloro-1-(2-cyanopropane-2-yl)-1H-pyrazole-4-yl)amino)-4-(ethylamino)-7H-pyrrolo[2,3-d]pyrimidine-5-carbonitrile] | < 10
24 | CCNc1nc(Nc2cc3c(cc2Cl)C(=O)N(C)C3)nc2[nH]cc(C#N)c12 [Example 128, 2-((6-chloro-2-methyl-1-oxoisoindol-5-yl)amino)-4-(ethylamino)-7H-pyrrolo[2,3-d]pyrimidine-5-carbonitrile] | > 100
25 | COc1cc(C(=O)N2CCC(N3CCOCC3)CC2)c(F)cc1Nc1nc(O[C@H]2CCOC2)c2c(C#N)c[nH]c2n1 [Example 93, (S)-2-((5-fluoro-2-methoxy-4-(4-morpholinopiperidine-1-carbonyl)phenyl)amino)-4-((tetrahydrofuran-3-yl)oxy)-7H-pyrrolo[2,3-d]pyrimidine-5-carbonitrile] | < 10
26 | COc1cc(C(=O)N2CCOCC2)ccc1Nc1nc(OC2(C)CC2)c2c(C#N)c[nH]c2n1 [Example 95, 2-((2-methoxy-4-(morpholine-4-carbonyl)phenyl)amino)-4-(1-methylcyclopropoxy)-7H-pyrrolo[2,3-d]pyrimidine-5-carbonitrile] | < 10
27 | CNc1nc(Nc2cc(F)c(C(=O)NC3CCN(C4COC4)CC3)cc2OC)nc2[nH]cc(C#N)c12 [Example 63, 4-((5-cyano-4-(methylamino)-7H-pyrrolo[2,3-d]pyrimidine-2-yl)amino)-2-fluoro-5-methoxy-N-(1-(oxetane-3-pyrrolidine-1-yl)piperidine-4-yl)benzamide] | < 10
28 | COc1cc(C(=O)N2CCOCC2)c(F)cc1Nc1nc(OC2(C)CC2)c2c(C#N)c[nH]c2n1 [Example 97, 2-((5-fluoro-2-methoxy-4-(morpholine-4-carbonyl)phenyl)amino)-4-(1-methylcyclopropoxy)-7H-pyrrolo[2,3-d]pyrimidine-5-carbonitrile] | < 10
29 | CCNc1nc(Nc2ccc(C(=O)N3CCC(N4CCN(C)CC4)CC3)cc2OC)nc2[nH]cc(C(F)(F)F)c12 [Example 106] | < 10
30 | CNc1nc(Nc2c(C)nn(C(C)(C)C#N)c2C)nc2[nH]cc(C#N)c12 [Example 77, 2-((1-(2-cyanopropane-2-yl)-3,5-dimethyl-1H-pyrazole-4-yl)amino)-4-(methylamino)-7H-pyrrolo[2,3-d]pyrimidine-5-carbonitrile] | > 100
31 | CNc1nc(Nc2ccc(C(=O)N3CCN(C)C[C@H]3C)cc2OC)nc2[nH]cc(C#N)c12 [Example 75, (R)-2-((4-(2,4-dimethylpiperazine-1-carbonyl)-2-methoxyphenyl)amino)-4-(methylamino)-7H-pyrrolo[2,3-d]pyrimidine-5-carbonitrile] | < 10
